Reference: patent US8178506B2, “Oligomeric compounds and compositions for use in modulation of small non-coding RNAs” (Regulus Therapeutics Inc., priority 2003, dated 2012)
In the oligonucleotide strings, read from the 5' end, every base follows the letter of its sugar. An asterisk marks phosphorothioate; unmarked linkages are phosphodiester. Other units and linkages are bracketed, terminal groups are in braces. A string of capitals states the bases alone. e = 2'-O-(2-methoxyethyl) (MOE); [5mC] = 5-methylcytosine

Columns and labels:
adipocytes = test: Triglyceride accumulation assay in adipocytes; type: cell-based, human; conditions: for Triglycerides: differentiating adipocytes day 10 post-induction, 24 hours after treatment
aP2 = aP2 mRNA expression in adipocytes (real-time PCR); type: cell-based, human; conditions: for AP2 (mRNA expression): adipocytes, 250 nM oligomeric compound, day nine post-transfection, relative to control (1.0); for aP2 mRNA: Table 75
HSL = HSL mRNA expression in adipocytes (real-time PCR); type: cell-based, human; conditions: for HSL (mRNA expression): adipocytes, 250 nM oligomeric compound, day nine post-transfection, relative to control (1.0)
Glut4 = Glut4 mRNA expression in adipocytes (real-time PCR); type: cell-based, human; conditions: for Glut4 (mRNA expression): adipocytes, 250 nM oligomeric compound, day nine post-transfection, relative to control (1.0)
PPARγ = PPARγ mRNA expression in adipocytes (real-time PCR); type: cell-based, human; conditions: for PPAR gamma (mRNA expression): adipocytes, 250 nM oligomeric compound, day nine post-transfection, relative to control (1.0); for PPAR-gamma mRNA: differentiating adipocytes day 10 post-induction, 24 hours after treatment
HuVECs = test: Endothelial tube formation assay in HuVECs; conditions: 75 nM oligomeric compound, Table 56
[1] = adipocytes, 250 nM oligomeric compound, relative to control (1.0), Table 15
[2] = adipocytes, 250 nM oligomeric compound, relative to control (1.0), Table 16
[3] = differentiating adipocytes transfected with oligomeric compound
[4] = Table 18, differentiating adipocytes, control = treatment with ISIS 342673
[5] = differentiating adipocytes transfected with oligomeric compound, Table 75
[6] = Table 17, differentiating adipocytes, control = treatment with ISIS 342673
[7] = 50 nM, differentiating adipocytes day 10 post-induction, 24 hours after treatment
[8] = 100 nM, differentiating adipocytes day 10 post-induction, 24 hours after treatment
[9] = 200 nM, differentiating adipocytes day 10 post-induction, 24 hours after treatment
[10] = 300 nM, differentiating adipocytes day 10 post-induction, 24 hours after treatment

Question: For “327888 (antisense eA*eA*eT*eG*e[5mC]*e[5mC]*e[5mC]*e[5mC]*eT*eA*eA*eA*eA*eA*eT*e[5mC]*e[5mC]*eT*eT*eA*eT) [compound 327888]”, which “TG (triglyceride accumulation)” value (adipocytes; [1]) is on record?
Answer: 0.98

Question: And the “TG (triglyceride accumulation)” value (adipocytes; [2])?
Answer: 0.44

Question: And the “TG (triglyceride accumulation)” value (adipocytes; [3])?
Answer: 132 percentage of untreated control (UTC)

Question: And the “AP2 (mRNA expression)” value (aP2; Table 15)?
Answer: 1.18

Question: What about the “AP2 (mRNA expression)” value (aP2; Table 16) of the same substance?
Answer: 0.47

Question: What about the “AP2 mRNA” value (aP2; [3]) of the same substance?
Answer: 102 percentage of untreated control (UTC)

Question: What about the “HSL (mRNA expression)” value (HSL; Table 15) of the same substance?
Answer: 1.38

Question: And the “HSL (mRNA expression)” value (HSL; Table 16)?
Answer: 0.50

Question: What about the “HSL mRNA” value (HSL; [3]) of the same substance?
Answer: 134 percentage of untreated control (UTC)

Question: What about the “Glut4 (mRNA expression)” value (Glut4; Table 15) of the same substance?
Answer: 1.37

Question: And the “Glut4 (mRNA expression)” value (Glut4; Table 16)?
Answer: 0.17

Question: What about the “GLUT4 mRNA” value (Glut4; [3]) of the same substance?
Answer: 84 percentage of untreated control (UTC)

Question: What about the “PPAR gamma (mRNA expression)” value (PPARγ; Table 15) of the same substance?
Answer: 1.36

Question: And the “PPAR gamma (mRNA expression)” value (PPARγ; Table 16)?
Answer: 0.66

Question: And the “PPAR gamma mRNA” value (PPARγ; [3])?
Answer: 103 percentage of untreated control (UTC)

Question: What about the “% Activity Relative to UTC (tube formation)” value (HuVECs) of the same substance?
Answer: 100.0%

Question: What does the source list for “327889 (antisense eG*eT*eG*eG*eT*eA*eA*eT*e[5mC]*e[5mC]*e[5mC]*eT*eG*eG*e[5mC]*eA*eA*eT*eG*eT*eG*eA*eT) [compound 327889]”?
Answer: TG (triglyceride accumulation) (adipocytes; [1]): 0.47; TG (triglyceride accumulation) (adipocytes; [2]): 0.46; AP2 (mRNA expression) (aP2; Table 15): 0.69; AP2 (mRNA expression) (aP2; Table 16): 0.57; HSL (mRNA expression) (HSL; Table 15): 0.59; HSL (mRNA expression) (HSL; Table 16): 0.54; Glut4 (mRNA expression) (Glut4; Table 15): 0.55; Glut4 (mRNA expression) (Glut4; Table 16): 0.46; PPAR gamma (mRNA expression) (PPARγ; Table 15): 0.71; PPAR gamma (mRNA expression) (PPARγ; Table 16): 0.82; % Activity Relative to UTC (tube formation) (HuVECs): 50.0%

Question: Which results are given for “327890 (antisense eA*eG*e[5mC]*eA*e[5mC]*eA*eA*eA*e[5mC]*eT*eA*e[5mC]*eT*eA*e[5mC]*e[5mC]*eT*e[5mC]*eA) [compound 327890]”?
Answer: TG (triglyceride accumulation) (adipocytes; [1]): 0.92; TG (triglyceride accumulation) (adipocytes; [2]): 0.61; AP2 (mRNA expression) (aP2; Table 15): 0.91; AP2 (mRNA expression) (aP2; Table 16): 0.69; HSL (mRNA expression) (HSL; Table 15): 0.86; HSL (mRNA expression) (HSL; Table 16): 0.67; Glut4 (mRNA expression) (Glut4; Table 15): 1.10; Glut4 (mRNA expression) (Glut4; Table 16): 0.67; PPAR gamma (mRNA expression) (PPARγ; Table 15): 1.18; PPAR gamma (mRNA expression) (PPARγ; Table 16): 0.94; % Activity Relative to UTC (tube formation) (HuVECs): 92.9%

Question: With “327892 (antisense eA*e[5mC]*eT*eT*eT*e[5mC]*eG*eG*eT*eT*eA*eT*e[5mC]*eT*eA*eG*e[5mC]*eT*eT*eT*eA) [compound 327892]” as the substance, how does the “TG (triglyceride accumulation)” value (adipocytes; [1]) read?
Answer: 0.42

Question: And the “AP2 (mRNA expression)” value (aP2; Table 15)?
Answer: 0.31

Question: And the “HSL (mRNA expression)” value (HSL; Table 15)?
Answer: 0.25

Question: What about the “Glut4 (mRNA expression)” value (Glut4; Table 15) of the same substance?
Answer: 0.07

Question: What about the “PPAR gamma (mRNA expression)” value (PPARγ; Table 15) of the same substance?
Answer: 0.32

Question: What about the “% Activity Relative to UTC (tube formation)” value (HuVECs) of the same substance?
Answer: 57.1%

Question: “341805 (antisense ACCCTTATCAGTTCTCCGTCCA; all 2'-MOE, all phosphorothioate, methylation of C not given here) [compound 341805]” was tested. Which “TG (triglyceride accumulation)” value (adipocytes; [4]) did it give?
Answer: 78.1 percentage of control

Question: And the “AP2 mRNA” value (aP2; [4])?
Answer: 81.9 percentage of control

Question: And the “aP2 mRNA” value (aP2; [3])?
Answer: 90 percentage of untreated control (UTC)

Question: What about the “HSL mRNA” value (HSL; [4]) of the same substance?
Answer: 81.8 percentage of control

Question: And the “HSL mRNA” value (HSL; [5])?
Answer: 86 percentage of untreated control (UTC)

Question: And the “GLUT4 mRNA” value (Glut4; [4])?
Answer: 88.2 percentage of control

Question: And the “GLUT4 mRNA” value (Glut4; [5])?
Answer: 74 percentage of untreated control (UTC)

Question: What about the “PPAR gamma mRNA” value (PPARγ; [4]) of the same substance?
Answer: 80.4 percentage of control

Question: And the “PPAR gamma mRNA” value (PPARγ; [5])?
Answer: 77 percentage of untreated control (UTC)

Question: “341806 (antisense GCCAATATTTCTGTGCTGCTA; all 2'-MOE, all phosphorothioate, methylation of C not given here) [compound 341806]” was tested. Which “TG (triglyceride accumulation)” value (adipocytes; [4]) did it give?
Answer: 83.2 percentage of control

Question: What about the “AP2 mRNA” value (aP2; [4]) of the same substance?
Answer: 75.8 percentage of control

Question: And the “aP2 mRNA” value (aP2; [3])?
Answer: 83 percentage of untreated control (UTC)

Question: What about the “HSL mRNA” value (HSL; [4]) of the same substance?
Answer: 73.4 percentage of control

Question: And the “HSL mRNA” value (HSL; [5])?
Answer: 77 percentage of untreated control (UTC)

Question: What about the “GLUT4 mRNA” value (Glut4; [4]) of the same substance?
Answer: 69.4 percentage of control

Question: What about the “GLUT4 mRNA” value (Glut4; [5]) of the same substance?
Answer: 58 percentage of untreated control (UTC)

Question: And the “PPAR gamma mRNA” value (PPARγ; [4])?
Answer: 72.6 percentage of control

Question: And the “PPAR gamma mRNA” value (PPARγ; [5])?
Answer: 70 percentage of untreated control (UTC)

Question: Which “TG (triglyceride accumulation)” value (adipocytes; [4]) does the source give for “341807 (antisense CTGGGACTTTGTAGGCCAGTT; all 2'-MOE, all phosphorothioate, methylation of C not given here) [compound 341807]” here?
Answer: 114.1 percentage of control

Question: What about the “AP2 mRNA” value (aP2; [4]) of the same substance?
Answer: 74.8 percentage of control

Question: What about the “aP2 mRNA” value (aP2; [3]) of the same substance?
Answer: 82 percentage of untreated control (UTC)

Question: And the “HSL mRNA” value (HSL; [4])?
Answer: 96.8 percentage of control

Question: What about the “HSL mRNA” value (HSL; [5]) of the same substance?
Answer: 102 percentage of untreated control (UTC)

Question: And the “GLUT4 mRNA” value (Glut4; [4])?
Answer: 119.5 percentage of control

Question: And the “GLUT4 mRNA” value (Glut4; [5])?
Answer: 101 percentage of untreated control (UTC)

Question: What about the “PPAR gamma mRNA” value (PPARγ; [4]) of the same substance?
Answer: 86.2 percentage of control

Question: What about the “PPAR gamma mRNA” value (PPARγ; [5]) of the same substance?
Answer: 83 percentage of untreated control (UTC)

Question: “342673 (antisense eA*eG*eA*e[5mC]*eT*eA*eG*e[5mC]*eG*eG*eT*eA*eT*e[5mC]*eT*eT*eT*eA*eT*e[5mC]*e[5mC]*e[5mC]) [compound 342673]” was tested. Which Triglycerides (adipocytes; 50 nM) did it give?
Answer: 94.2 % UTC

Question: And the Triglycerides (adipocytes; 100 nM)?
Answer: 105.3 % UTC

Question: And the Triglycerides (adipocytes; 200 nM)?
Answer: 98.3 % UTC

Question: And the Triglycerides (adipocytes; 300 nM)?
Answer: 108.2 % UTC

Question: What about the “TG (triglyceride accumulation)” value (adipocytes; [6]) of the same substance?
Answer: 100.0 percentage of control

Question: What about the “TG (triglyceride accumulation)” value (adipocytes; [4]) of the same substance?
Answer: 100 percentage of control

Question: What about the “AP2 mRNA” value (aP2; [7]) of the same substance?
Answer: 82.4 % UTC

Question: And the “AP2 mRNA” value (aP2; [8])?
Answer: 90.3 % UTC

Question: What about the “AP2 mRNA” value (aP2; [9]) of the same substance?
Answer: 81.1 % UTC

Question: What about the “AP2 mRNA” value (aP2; [10]) of the same substance?
Answer: 70.9 % UTC

Question: And the “AP2 mRNA” value (aP2; [6])?
Answer: 100.0 percentage of control

Question: What about the “AP2 mRNA” value (aP2; [4]) of the same substance?
Answer: 100 percentage of control

Question: What about the “HSL mRNA” value (HSL; [7]) of the same substance?
Answer: 92.0 % UTC

Question: And the “HSL mRNA” value (HSL; [8])?
Answer: 95.6 % UTC

Question: And the “HSL mRNA” value (HSL; [9])?
Answer: 97.3 % UTC

Question: And the “HSL mRNA” value (HSL; [10])?
Answer: 85.2 % UTC

Question: What about the “HSL mRNA” value (HSL; [6]) of the same substance?
Answer: 100.0 percentage of control

Question: And the “HSL mRNA” value (HSL; [4])?
Answer: 100 percentage of control

Question: And the “GLUT4 mRNA” value (Glut4; [7])?
Answer: 94.9 % UTC

Question: And the “GLUT4 mRNA” value (Glut4; [8])?
Answer: 90.7 % UTC

Question: And the “GLUT4 mRNA” value (Glut4; [9])?
Answer: 97.6 % UTC

Question: What about the “GLUT4 mRNA” value (Glut4; [10]) of the same substance?
Answer: 102.7 % UTC

Question: And the “GLUT4 mRNA” value (Glut4; [6])?
Answer: 100.0 percentage of control

Question: And the “GLUT4 mRNA” value (Glut4; [4])?
Answer: 100 percentage of control

Question: What about the “PPAR-gamma mRNA” value (PPARγ; 50 nM) of the same substance?
Answer: 77.5 % UTC

Question: What about the “PPAR-gamma mRNA” value (PPARγ; 100 nM) of the same substance?
Answer: 89.9 % UTC

Question: And the “PPAR-gamma mRNA” value (PPARγ; 200 nM)?
Answer: 94.6 % UTC

Question: And the “PPAR-gamma mRNA” value (PPARγ; 300 nM)?
Answer: 85.8 % UTC

Question: What about the “PPAR gamma mRNA” value (PPARγ; [6]) of the same substance?
Answer: 100.0 percentage of control

Question: What about the “PPAR gamma mRNA” value (PPARγ; [4]) of the same substance?
Answer: 100 percentage of control
